According to patent US11655235B2, “Pyrrolidine and piperidine compounds” (YUHAN CORPORATION, priority 2019, dated 2023):

Assays:
Format in all cases: biochemical
DPP4 = DPP4 (Homo sapiens, UniProt P27487); assay: DPP4 inhibition, fluorogenic substrate H-Gly-Pro-AMC; parameters: purchased R&D Systems
Recombinant human FAP = biological target: T1, Recombinant human FAP (Homo sapiens, UniProt Q12884); assay: FAP inhibition, fluorogenic substrate Z-Gly-Pro-AMC
T1 construct: purchased R&D systems
T1 sequence (Q12884 1-760): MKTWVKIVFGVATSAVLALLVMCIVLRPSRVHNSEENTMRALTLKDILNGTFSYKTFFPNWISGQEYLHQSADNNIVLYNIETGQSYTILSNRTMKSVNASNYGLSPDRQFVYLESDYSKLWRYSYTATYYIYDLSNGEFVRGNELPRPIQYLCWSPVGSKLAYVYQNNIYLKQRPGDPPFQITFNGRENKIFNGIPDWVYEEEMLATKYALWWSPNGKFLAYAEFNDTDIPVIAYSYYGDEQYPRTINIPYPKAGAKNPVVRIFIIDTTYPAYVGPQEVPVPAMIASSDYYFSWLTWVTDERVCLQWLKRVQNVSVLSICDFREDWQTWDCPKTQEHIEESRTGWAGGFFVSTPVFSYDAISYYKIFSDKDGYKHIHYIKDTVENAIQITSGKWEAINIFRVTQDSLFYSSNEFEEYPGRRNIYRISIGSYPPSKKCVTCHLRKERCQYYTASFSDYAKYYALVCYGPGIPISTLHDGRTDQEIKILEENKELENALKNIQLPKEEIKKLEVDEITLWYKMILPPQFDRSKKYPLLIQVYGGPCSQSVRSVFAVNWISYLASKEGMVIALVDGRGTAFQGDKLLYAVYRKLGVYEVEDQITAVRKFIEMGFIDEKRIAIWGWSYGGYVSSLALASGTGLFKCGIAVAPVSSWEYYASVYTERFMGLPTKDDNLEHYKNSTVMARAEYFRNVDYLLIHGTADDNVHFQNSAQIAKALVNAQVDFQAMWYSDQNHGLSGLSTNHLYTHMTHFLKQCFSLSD
Method in brief: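 Eight-point compound dilutions (≤0.1% DMSO) were incubated at 25° C with 10 ng recombinant human FAP in Tris pH 7.5/1 M NaCl/BSA buffer and Z-Gly-Pro-AMC. Inhibition was taken as % drop in fluorescence rate (380/460 nm) against uninhibited control; IC50 came from a four-parameter logistic fit.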

recombinant human DPP7 = biological target: T2, recombinant human DPP7 (Homo sapiens, UniProt Q9UHL4); assay: DPP7 inhibition, fluorogenic substrate Lys-Pro-AMC
T2 construct: purchased R&D Systems
Protocol: The compounds according to the present technology were evaluated in terms of the inhibitory effect on the activity of dipeptidyl peptidases including FAP by using a substrate producing fluorescent substances upon enzymatic decomposition. The test was conducted at 25° C. to get a final reaction volume of 100 μL in a 96 black well plate. […] Briefly, the test compounds were dissolved in dimethyl sulfoxide (DMSO) at a concentration of 20 mM and then subjected to serial dilution, thereby creating an 8 point curve. As for the control group, a 6 point curve created by serial dilution of Talabostat in the same buffer solution was used. Fluorescence intensity was measured using a microplate reader (Flexstation3, Molecular Devices) under the wavelength condition exciting at 380 nm and reading the emission at 460 nm. The inhibitory effect of the test compounds was measured as a decrease (%) in the signal rate as compared to the control group without any inhibitor. Data was fixed to a logistic model with four variables and IC50 value was calculated using GraphPad Prism program. As for recombinant human DPP4 (R&D Systems), 25 mM tris (pH 8.0) buffer as a buffer solution and H-Gly-Pro-AMC (Bachem) as a substrate were used. As for recombinant human DPP7 (R&D Systems), 25 mM MES (pH 6.0) buffer as a buffer solution and Lys-Pro-AMC (Bachem) as a substrate were used. As for recombinant human DPP8 (PBS Bioscience), as a buffer solution, a 10 mM tris (pH 7.4) buffer comprising 10 mM of magnesium chloride and 0.05% of Tween 20, and Z-Ala-Pro-AMC (BPS Bioscience) as a substrate were used. As for recombinant human DPP9 (R&D Systems), a 25 mM tris (pH 8.0) buffer as a buffer solution and H-Gly-Pro-AMC (Bachem) as a substrate were used. As for recombinant human PREP (R&D System), as a buffer solution, a 25 mM tris (pH 7.5) buffer comprising 250 mM sodium chloride and 2.5 mM DTT (Dithiolthreitol), and Z-Gly-Pro-AMC (Bachem) as a substrate were used. The evaluation was made by using 10 ng of DPP4, PDD7, and PREP, 20 ng of DPP8, and 50 ng of DPP9 based on the final reaction. In the evaluation of DPP4, the test compounds were subjected to serial dilution in a buffer under the condition containing up to 0.1% of DMSO. In the evaluation of DPP7, DPP8, DPP9, and PREP, the test compounds were subjected to serial dilution in each buffer under the condition containing up to 0.5% of DMSO.

[1] = 25° C., H-Gly-Pro-AMC substrate
[2] = 25° C., Z-Gly-Pro-AMC substrate
[3] = recombinant human FAP, substrate Z-Gly-Pro-AMC

Chain of DPP4 (P27487 whole entry): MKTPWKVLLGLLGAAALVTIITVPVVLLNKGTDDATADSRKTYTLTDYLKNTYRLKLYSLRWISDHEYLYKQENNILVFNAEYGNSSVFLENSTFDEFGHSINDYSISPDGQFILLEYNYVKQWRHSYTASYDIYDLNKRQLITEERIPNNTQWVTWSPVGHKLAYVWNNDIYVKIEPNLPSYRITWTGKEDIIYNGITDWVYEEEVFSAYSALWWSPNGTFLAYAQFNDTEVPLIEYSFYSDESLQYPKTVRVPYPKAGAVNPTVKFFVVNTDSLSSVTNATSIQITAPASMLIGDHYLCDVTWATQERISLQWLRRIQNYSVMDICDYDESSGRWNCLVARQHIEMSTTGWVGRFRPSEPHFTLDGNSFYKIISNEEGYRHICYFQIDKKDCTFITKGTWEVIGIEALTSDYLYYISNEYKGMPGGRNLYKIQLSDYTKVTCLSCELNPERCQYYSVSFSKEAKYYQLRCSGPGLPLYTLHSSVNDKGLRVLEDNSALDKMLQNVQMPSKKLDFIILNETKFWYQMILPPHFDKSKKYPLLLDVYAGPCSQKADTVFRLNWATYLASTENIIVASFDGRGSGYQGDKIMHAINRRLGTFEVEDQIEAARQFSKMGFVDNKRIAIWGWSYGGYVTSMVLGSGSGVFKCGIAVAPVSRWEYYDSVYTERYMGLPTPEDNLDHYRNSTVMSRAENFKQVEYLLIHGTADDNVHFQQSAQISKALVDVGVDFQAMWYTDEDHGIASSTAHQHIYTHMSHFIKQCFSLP

Compound	IC50 (Recombinant human FAP; [2])	IC50 (DPP4; recombinant human DPP4)	IC50 (Recombinant human FAP; [3])	also measured
N#C[C@@H]1CCCN1C(=O)CN1CC[C@H](Nc2ccnc3ccccc23)C1 [Example 5, (S)-1-(2-((S)-3-(quinolin-4-ylamino)pyrrolidin-1-yl)acetyl)pyrrolidine-2-carbonitrile]	2.6 nM			IC50 (DPP4; [1]): > 1000 nM; IC50 (recombinant human DPP7): 294 nM
N#C[C@@H]1CCCN1C(=O)CN1CC[C@H](Nc2cncc3ccoc23)C1 [Example 23, (S)-1-(2-((S)-3-(furo[3,2-c]pyridin-7-ylamino)pyrrolidin-1-yl)acetyl)pyrrolidine-2-carbonitrile]	3.08 nM			IC50 (DPP4; [1]): > 1000 nM; IC50 (recombinant human DPP7): 951 nM
COc1ccc2occ(C(=O)N[C@H]3CCN(CC(=O)N4CCC[C@H]4C#N)C3)c2c1 [Example 46, N—((S)-1-(2-((S)-2-cyanopyrrolidin-1-yl)-2-oxoethyl)pyrrolidin-3-yl)-5-methoxybenzofuran-3-carboxamide]	7.7 nM			inhibition at 1 µM (DPP4; read-out: hDPP4 inhibition % at 1 μM): 1.4%; IC50 (recombinant human DPP7): 2200 nM
N#C[C@@H]1CCCN1C(=O)CN1CC[C@H](Oc2ccnc3ccccc23)C1 [Example 61, (S)-1-(2-((S)-3-(quinolin-4-yloxy)pyrrolidin-1-yl)acetyl)pyrrolidine-2-carbonitrile]	21.5 nM			IC50 (DPP4; [1]): > 1000 nM; IC50 (recombinant human DPP7): 1150 nM
N#C[C@@H]1CCCN1C(=O)CN1CC[C@H](Oc2cccc3ncccc23)C1 [Example 66, (S)-1-(2-((S)-3-(quinolin-5-yloxy)pyrrolidin-1-yl)acetyl)pyrrolidine-2-carbonitrile]	5.48 nM			IC50 (DPP4; [1]): > 1000 nM; IC50 (recombinant human DPP7): 6390 nM
N#C[C@@H]1CCCN1C(=O)CN1CCC(Oc2cnc3ccccc3c2)CC1 [Example 117, (S)-1-(2-(4-(quinolin-3-yloxy)piperidin-1-yl)acetyl)pyrrolidine-2-carbonitrile]	22.9 nM			hDPP4 inhibition % at 1 μM (DPP4): No inhibition**
N#C[C@@H]1CCCN1C(=O)CN1CCC(Oc2ccc3ncccc3c2)CC1 [Example 120, (S)-1-(2-(4-(quinolin-6-yloxy)piperidin-1-yl)acetyl)pyrrolidine-2-carbonitrile]	11.8 nM			hDPP4 inhibition % at 1 μM (DPP4): No inhibition**
COc1ccc2cc(N(C)[C@H]3CCN(CC(=O)N4CCC[C@H]4C#N)C3)cnc2c1 [Example 153, (S)-1-(2-((S)-3-((7-methoxyquinolin-3-yl)(methyl)amino)pyrrolidin-1-yl)acetyl)pyrrolidine-2-carbonitrile]	3.4 nM			IC50 (recombinant human DPP7): 3120 nM
COc1ccc2ncccc2c1N[C@H]1CCN(CC(=O)N2CCC[C@H]2C#N)C1 [Example 240, (2S)-1-[2-[(3S)-3-[(6-methoxy-5-quinolyl)amino]pyrrolidin-1-yl]acetyl]pyrrolidine-2-carbonitrile]		> 10000 nM	20 nM	
CN(c1ccc2ccccc2n1)C1CCN(CC(=O)N2CCC[C@H]2C#N)CC1 [Example 307, (2S)-1-[2-[4-[methyl(2-quinolyl)amino]-1-piperidyl]acetyl]pyrrolidine-2-carbonitrile]		> 10000 nM	47.1 nM	
CN(c1cncc2ccoc12)C1CCN(CC(=O)N2CCC[C@H]2C#N)CC1 [Example 312, (2S)-1-[2-[4-[furo[3,2-c]pyridin-7-yl(methyl)amino]-1-piperidyl]acetyl]pyrrolidine-2-carbonitrile]		> 10000 nM	31.8 nM	
CN(c1cccc2ccncc12)C1CCN(CC(=O)N2C[C@@H](F)C[C@H]2C#N)CC1 [Example 320, (2S,4S)-4-fluoro-1-[2-[4-[8-isoquinolyl(methyl)amino]-1-piperidyl]acetyl]pyrrolidine-2-carbonitrile]		410 nM	46.2 nM	
N#C[C@@H]1C[C@H](F)CN1C(=O)CN1CCC(Nc2ccc(OCc3ccccc3)c3ncccc23)CC1 [Example 332, (2S,4S)-1-[2-[4-[(8-benzyloxy-5-quinolyl)amino]-1-piperidyl]acetyl]-4-fluoro-pyrrolidine-2-carbonitrile]		6200 nM	5.5 nM	
N#Cc1ccc2c(NC3CCN(CC(=O)N4C[C@@H](F)C[C@H]4C#N)CC3)cccc2n1 [Example 335, 5-[[1-[2-oxo-2-[(2S,4S)-2-cyano-4-fluoro-pyrrolidin-1-yl]ethyl]-4-piperidyl]amino]quinoline-2-carbonitrile]		7330 nM	5.9 nM	

Now from value to compound, other results behind:

IC50 (Recombinant human FAP; [2])	IC50 (DPP4; recombinant human DPP4)	IC50 (Recombinant human FAP; [3])	Compound	also measured
343 nM			Cc1ccc2ncccc2c1NC1CCN(CC(=O)N2C[C@@H](F)C[C@H]2C#N)CC1 [Example 134, (2S,4S)-4-fluoro-1-(2-(4-((6-methylquinolin-5-yl)amino)piperidin-1-yl)acetyl)pyrrolidine-2-carbonitrile]	IC50 (DPP4; [1]): 8010 nM
	> 10000 nM	96.8 nM	CN(c1ccnc2ccccc12)C1CCN(CC(=O)N2CCC[C@H]2C#N)CC1 [Example 308, (2S)-1-[2-[4-[methyl(4-quinolyl)amino]-1-piperidyl]acetyl]pyrrolidine-2-carbonitrile]	
	> 10000 nM	68.3 nM	CN(c1cccc2ncccc12)C1CCN(CC(=O)N2CCC[C@H]2C#N)CC1 [Example 309, (2S)-1-[2-[4-[methyl(5-quinolyl)amino]-1-piperidyl]acetyl]pyrrolidine-2-carbonitrile]	
	> 10000 nM	18.2 nM	CN(c1cccc2cnccc12)C1CCN(CC(=O)N2C[C@@H](F)C[C@H]2C#N)CC1 [Example 318, (2S,4S)-4-fluoro-1-[2-[4-[5-isoquinolyl(methyl)amino]-1-piperidyl]acetyl]pyrrolidine-2-carbonitrile]	
	7540 nM	2.6 nM	N#C[C@@H]1C[C@H](F)CN1C(=O)CN1CCC(Nc2cccc3ncc(Cl)cc23)CC1 [Example 333, (2S,4S)-1-[2-[4-[(3-chloro-5-quinolyl)amino]-1-piperidyl]acetyl]-4-fluoro-pyrrolidine-2-carbonitrile]	
	> 10000 nM	22.7 nM	N#C[C@@H]1C[C@H](F)CN1C(=O)CN1CCC(Nc2ccc3cnccc3c2)CC1 [Example 341, (2S,4S)-4-fluoro-1-[2-[4-(6-isoquinolylamino)-1-piperidyl]acetyl]pyrrolidine-2-carbonitrile]	
	6840 nM	2.3 nM	N#C[C@@H]1C[C@H](F)CN1C(=O)CN1CCC(Oc2cccc3ncc(F)cc23)CC1 [Example 416, (2S,4S)-4-fluoro-1-[2-[4-[(3-fluoro-5-quinolyl)oxy]-1-piperidyl]acetyl]pyrrolidine-2-carbonitrile]	
	4670 nM	3.7 nM	N#C[C@@H]1C[C@H](F)CN1C(=O)CN1CCC(Oc2ccc(Cl)c3ncccc23)CC1 [Example 418, (2S,4S)-1-[2-[4-[(8-chloro-5-quinolyl)oxy]-1-piperidyl]acetyl]-4-fluoro-pyrrolidine-2-carbonitrile]	
